A short description of the series: Kinetic gradient concentration study in water. The format is physicochemical. To be noted: CBZ gradient 0.01-0.64 w/v %. The procedure: CBZ-Ethanol solution was dispensed into 10 columns of wells in a 96-well microplate as follows: row A (80 μL @ 1 mg/mL; 80 μg API); row B (100 μL @ 2 mg/mL; 200 μg); row C (100 μL @ 4 mg/mL; 400 μg); row D (100 μL @ 6 mg/mL; 600 μg); row E (100 μL @ 8 mg/mL; 800 μg); row F (100 μL @ 20 mg/mL; 2 mg); row G (2×100 μL @ 20 mg/mL; 4 mg); row H (4×100 μL @ 20 mg/mL; 8 mg). Thus, a first-pass filling of the wellplate was conducted. The wellplate was placed on a centrivap and the solvent stripped at ambient temperature for ˜4 hours. The wells in rows G and H were refilled with CBZ solution, and the solvent stripped at ambient temperature for ˜1 hour, resulting in a net CBZ charge to rows G and H of 4 mg per well. This procedure was repeated twice for row H, resulting in a net CBZ charge of 8 mg per well. […] To the wells in columns 1 through 10 were charged the appropriate excipient, surfactant, and HPBCD solutions (4 mg/mL; 25 or 80 μL 5% Ethanol solution) that were previously determined in Example 1. Additional 5% Ethanol solvent was added to the wells to give 200 μL total liquid. The solvent (200 μL) was also charged to wells in column 11 (API control) and 12 (solvent only). […]
The microplate was inverted before scanning through the film on a UV-VIS microplate reader (600-900 nm, 2-nm step size; transmittance). […]

Each structure is given as a SMILES string.

Take `NC(=O)N1c2ccccc2C=Cc2ccccc21` [control, carbamazepine]: the “kinetically stable API concentration, sonicated microplate” value (sonicated wellplate) turned out to be 0.02 w/v %. Also, the “kinetically stable API concentration, unsonicated microplate” value (unsonicated wellplate) is 0.02 w/v %.

The record behind these values is US20140045724A1, “FORMULATION SCREENING METHODS, APPARATUSES FOR PERFORMING SUCH METHODS AND FORMULATIONS FORMED BY SUCH METHODS” (priority 2012, published 2014).
